{"source": "patent US20220016277A1", "about": "“MACROCYCLIC COMPLEXES OF RADIONUCLIDES AND THEIR USE IN RADIOTHERAPY OF CANCER” (Cornell University, priority 2018, published 2022)", "key": {"[1]": {"test": "Kinetic inertness of ^225Ac complexes: challenge with excess La^3+", "format": "physicochemical", "settings": "50-fold excess of La^3+; macropa 0.59 μM; RT; over 7 days", "procedure": "Kinetic Inertness of ^225Ac Complexes of Macropa and DOTA.\nGeneral. Stock solutions of La(NO3)3 (0.001 M or 0.1 M) were prepared in H2O. To the radiolabeled samples containing macropa (10 μL of 10^−5M stock; 1.0×10^−10 moles) or DOTA (10 μL of 10^_3M stock; 1.0×10^−8 moles) and ^225Ac (10 μL, 26 kBq) in NH4OAc buffer (pH 6, 0.15 M, 150 μL), a 50-fold mole excess of La^3+ was added (5 μL of 0.001 M or 0.1 M stock were added to solutions containing macropa and DOTA, respectively). The solutions were kept at room temperature and analyzed by iTLC at several time points over the course of 8 days. The iTLC plates were developed using citric acid (0.05 M, pH 5) as the eluent. Under these conditions, [^225Ac(macropa)]^+ and [^225Ac(DOTA)]^− remained at the baseline (RF=0) and any unchelated ^225Ac (^225Ac-citrate) migrated with the solvent front (RF=1). Percent of complex remaining intact was calculated by integrating area under the peaks on the radiochromatogram and dividing the counts associated with the ^225Ac-complex (RF=0) by the total counts integrated along the length of the iTLC plate.\nThe long half-life of ^225Ac necessitates its stable complex retention in vivo to avoid off-target damage to normal tissues arising from the release of free ^225Ac^3+. Furthermore, the stability of ^225Ac complexes against transmetalation and transchelation needs to be high. […]"}, "[2]": {"test": "Stability of [^225Ac(macropa)]^+ in human serum", "format": "in vitro ADME", "procedure": "Transmetalation by La^3+. [^225Ac(macropa)]^+ and [^225Ac(DOTA)] were prepared using 10^−5 M and 10^−3 M stock solutions (10 μL) of macropa and DOTA, respectively, to give final ligand concentrations of 5.9×10^−7 M (macropa) and 5.9×10^−5 M (DOTA). After confirming a radiochemical yield of >90% by TLC using 0.4 M sodium citrate (pH 4) containing 10% MeOH as the mobile phase, 160 μL of human serum (an equal volume based on labeling reaction volume) were added to each radiolabeled solution. A control solution was also prepared in which water was substituted for ligand. The solutions were monitored over the course of 8 days by iTLC. The plates were developed with EDTA (50 mM, pH 5) as the eluent. Under these conditions, [^225Ac(macropa)]^+ and [^225Ac(DOTA)]^− complexes remained at the baseline (RF=0) and any ^225Ac (^225Ac-EDTA) that had been transchelated by serum migrated with the solvent front (RF=1). Percent of complex remaining intact was calculated.\nThe long half-life of ^225Ac necessitates its stable complex retention in vivo to avoid off-target damage to normal tissues arising from the release of free ^225Ac^3+. Furthermore, the stability of ^225Ac complexes against transmetalation and transchelation needs to be high. To determine the kinetic inertness, [^225Ac(macropa)]^+ was challenged with La^3+ because of the established high affinity of macropa for this metal ion. […]"}}, "data": [{"smiles": "O=C([O-])c1cccc(CN2CCOCCOCCN(Cc3cccc(C(=O)[O-])n3)CCOCCOCC2)n1.[225Ac+3]", "note": "[[^225Ac(macropa)]^+]", "values": [{"measurement": "^225Ac complex remaining intact (radio-TLC)", "setting": "[1]", "result": 98, "unit": "%"}, {"measurement": "time ^225Ac^3+ remains complexed in human serum (radio-TLC)", "setting": "[2]", "result": "at least 8 days"}]}]}
